Assay results reported in US7670991B2, “Substituted benzoylcyclohexenones and their use as herbicidal agents” (Bayer CropScience AG, priority 2001, dated 2010).

Experiments:
rice = assay: Trial in sown rice (greenhouse), tolerance by rice; assay type: in vivo; settings: foliar treatment at 1.5-2-leaf stage of rice, flooded, rated 4 weeks after application
Description: (§1) Solvent: 5 parts by weight of acetone
Plant vessels (dimensions: 20 cm×20 cm×9 cm; surface: 1/200 ar) are filled with soil from a rice field. Seeds of rice and weeds are sown into the soil, which is kept moist.
The test batches are then kept flooded (water depth 3 cm).

[1] = log P by reversed-phase HPLC (C 18), acidic range; assay type: physicochemical; settings: reversed-phase HPLC column (C 18); pH=2.3
Method: Temperature: 43° C. (a) Mobile phases for the determination in the acidic range: 0.1% aqueous phosphoric acid, acetonitrile; linear gradient from 10% acetonitrile to 90% acetonitrile—the corresponding measurement results are marked ^a) in Table 1.

weeds [2] = assay: Trial in sown rice (greenhouse), activity against weeds; assay type: in vivo; settings: foliar treatment at 1.5-2-leaf stage of rice, flooded, rated 4 weeks after application
Description: as §1
Plant vessels (dimensions: 20 cm×20 cm×9 cm; surface: 1/200 ar) are filled with soil from a rice field. Seeds of rice and weeds are sown into the soil, which is kept moist. At the 1.5-2-leaf stage of rice, the dilute preparation of active compound is applied as a spray (foliar treatment).
One day after the treatment, the test vessels are flooded to a water depth of 3 cm. The test batches are then kept flooded (water depth 3 cm).

weeds [3] = assay: Pre-emergence test, activity against weeds; assay type: in vivo; settings: soil sprayed 24 hours after sowing, rated after three weeks
Description: as §1
Seeds of the test plants are sown in normal soil.

crop plants = settings: post-emergence, rated after three weeks
Description: Emulsifier: 1 part by weight of alkylaryl polyglycol ether
After three weeks, the degree of damage to the plants is rated in % damage in comparison to the development of the untreated control.

[4] = test system: broad-leaved weeds and weed grasses; assay: Post-emergence test, activity against weeds; assay type: in vivo; settings: test plants 5-15 cm sprayed, rated after three weeks
Description: as §1

## CN1CCN(C(=O)Nc2c(Cl)ccc(C(=O)C3C(=O)CCCC3=O)c2Cl)C1=O [Example 1-1, N-[2,6-dichloro-3-[(2,6-dioxo-cyclohexyl)-carbonyl]-phenyl]-3-methyl-2-oxo-1-imidazolidinecarboxamide]
rice
  tolerated by rice: tolerated well
[1]
  chromatographic logP: 2.07
Weeds [2]
  activity against weeds: strong activity
Weeds [3]
  activity against weeds: strong activity
Crop plants
  tolerated by crop plants: tolerated well
[4]
  activity against broad-leaved weeds and weed grasses: strong activity
